Assay results as given in patent publication US9656017B2, “Infusion delivery devices and methods” (priority 2014, dated 2017).
No end group written: not given here.

Columns and labels:
[1] = Post-injection plasma pramlintide levels for three subcutaneous doses compared with healthy plasma amylin profile; format: in vivo, human
Description: How well do the recommended mealtime injections of pramlintide mimic the healthy plasma amylin profile? […] In the case of three meals per day, these doses would result in three large boluses of pramlintide that spike well above the levels of plasma amylin measured in healthy adults. FIG. 3 superimposes plasma levels of the three subcutaneous doses of pramlintide (FIG. 2) on the plasma amylin profile in healthy adults (FIG. 1).
From an efficacy standpoint, the dose limiting effect of nausea caused by pramlintide plasma spikes reduces daily drug exposure below healthy plasma amylin exposure levels. Daily exposure to endogenous hormone and infused drug can be measured by calculating the areas under the curves (AUCs) in FIG. 3.

test animals = details: treated test animals; e.g. marked hyperlactemia followed by hyperglycemia; cited from earlier work
[2] = 24-hour plasma profiles of endogenous insulin and amylin in healthy adults, basal/bolus AUC analysis; format: in vivo, human; details: for In Vivo AUC pM × 24 hr / AUC: endogenous; for In Vivo AUC pM × 24 hr: molar; for AUC: human, in vivo, In Vivo AUC μg/L × 24 hr, corrected for molecular weight
Description: This difference in bolus/basal ratios was quantified by estimating the AUCs of the basal and bolus components, which would reflect the 24-hour hormone exposures attributable to these components.
Comparing AUCs results in the discovery that there is a striking difference between hormones with respect to the importance of bolus exposure compared to basal exposure, as summarized in Table 1. […] See the example in Table 1.
Either this is background amylin expression which been reported in non-beta-cell tissues, or it is nonspecific background noise in the amylin assay. […] The same adjustment should also be made for any background insulin plasma levels.
The following calculations are presented as an example of how appropriate amylin agonist doses can be determined. This insulin-dependent dosing can be achieved by calculating two separate components of pramlintide dosing: (1) the weight ratio of the daily basal component of amylin-to-insulin; and (2) the weight ratio of the daily bolus component of amylin-to-insulin.

[3] = T1D patients, same immunometric assay (FIG. 1-D); cited from earlier work
[4] = ex vivo gram AUC (bioavailability adjusted)
[5] = in vivo gram AUC (molecular weight adjusted)
[6] = plasma, healthy adults, based upon AUCs

Compound: CC[C@H](C)[C@H](NC(=O)[C@@H]1CCCN1C(=O)CNC(=O)[C@H](Cc1ccccc1)NC(=O)[C@H](CC(N)=O)NC(=O)[C@H](CC(N)=O)NC(=O)[C@H](CO)NC(=O)[C@H](CO)NC(=O)[C@H](Cc1c[nH]cn1)NC(=O)[C@@H](NC(=O)[C@H](CC(C)C)NC(=O)[C@H](Cc1ccccc1)NC(=O)[C@H](CC(N)=O)NC(=O)[C@H](C)NC(=O)[C@H](CC(C)C)NC(=O)[C@H](CCCNC(=N)N)NC(=O)[C@H](CCC(N)=O)NC(=O)[C@@H](NC(=O)[C@H](C)NC(=O)[C@@H]1CSSC[C@H](NC(=O)[C@@H](N)CCCCN)C(=O)N[C@@H](CC(N)=O)C(=O)N[C@@H]([C@@H](C)O)C(=O)N[C@@H](C)C(=O)N[C@@H]([C@@H](C)O)C(=O)N1)[C@@H](C)O)C(C)C)C(=O)N[C@@H](CC(C)C)C(=O)N1CCC[C@H]1C(=O)N1CCC[C@H]1C(=O)N[C@H](C(=O)N[C@@H](CC(N)=O)C(=O)N[C@H](C(=O)NCC(=O)N[C@@H](CO)C(=O)N[C@@H](CC(N)=O)C(=O)N[C@H](C(=O)N[C@@H](Cc1ccc(O)cc1)C(N)=O)[C@@H](C)O)C(C)C)[C@@H](C)O [pramlintide, 25,28,29Pro-h-amylin]
- 24-hour exposure (relative AUC, endogenous amylin = 100%) ([1]; 90 μg dose, three meals per day (FIG. 4)): achieves the healthy, 24-hour physiological exposure
- plasma levels relative to plasma amylin in healthy adults ([1]; T1D patients, mealtime SC doses three times daily (FIG. 3)): supra-physiological (or pharmacological) plasma levels
- amylin activity in vivo (test animals): show amylin activity in vivo

Compound: CC[C@H](C)[C@H](NC(=O)[C@H](C)NC(=O)CNC(=O)[C@H](Cc1ccccc1)NC(=O)[C@H](CC(N)=O)NC(=O)[C@H](CC(N)=O)NC(=O)[C@H](CO)NC(=O)[C@H](CO)NC(=O)[C@H](Cc1c[nH]cn1)NC(=O)[C@@H](NC(=O)[C@H](CC(C)C)NC(=O)[C@H](Cc1ccccc1)NC(=O)[C@H](CC(N)=O)NC(=O)[C@H](C)NC(=O)[C@H](CC(C)C)NC(=O)[C@H](CCCNC(=N)N)NC(=O)[C@H](CCC(N)=O)NC(=O)[C@@H](NC(=O)[C@H](C)NC(=O)[C@@H]1CSSC[C@H](NC(=O)[C@@H](N)CCCCN)C(=O)N[C@@H](CC(N)=O)C(=O)N[C@@H]([C@@H](C)O)C(=O)N[C@@H](C)C(=O)N[C@@H]([C@@H](C)O)C(=O)N1)[C@@H](C)O)C(C)C)C(=O)N[C@@H](CC(C)C)C(=O)N[C@@H](CO)C(=O)N[C@@H](CO)C(=O)N[C@H](C(=O)N[C@@H](CC(N)=O)C(=O)N[C@H](C(=O)NCC(=O)N[C@@H](CO)C(=O)N[C@@H](CC(N)=O)C(=O)N[C@H](C(=O)N[C@@H](Cc1ccc(O)cc1)C(N)=O)[C@@H](C)O)C(C)C)[C@@H](C)O [Amylin]
- In Vivo AUC pM × 24 hr ([2]; basal component): 222.79 pM × 24 hr
- In Vivo AUC pM × 24 hr ([2]; bolus component): 135.19 pM × 24 hr
- Basal Amylin/Insulin Ratio [2, 4]: 14.8%
- Bolus Amylin/Insulin Ratio [2, 4]: 4.8%
- plasma levels as % of insulin levels ([2]; healthy adults, FIG. 8): less than 5%
- AUC ([2]; basal component): 0.88 ng·h/mL
- AUC ([2]; bolus component): 0.534 ng·h/mL
- Basal Amylin/Insulin Ratio [2, 5]: 7.4%
- Bolus Amylin/Insulin Ratio [2, 5]: 2.4%
- Basal Amylin/Insulin Ratio ([2]; in vivo molar AUC): 10.9%
- Bolus Amylin/Insulin Ratio ([2]; in vivo molar AUC): 3.5%
- Basal as % Total [2, 6]: 62%
- Bolus/Basal Ratio [2, 6]: 0.6
- plasma amylin, average [3]: 1.6 pM

Compound: Pro25 Val26 Pro 28 Pro29-h-amylin
- amylin activity in vivo (test animals): show amylin activity in vivo

Compound: Pro28-h-amylin (KCNTATCATQRLANFLVHSSNNFGAILPSTNVGSNTY; ends and bridges not checked; cysteine pairing not given here; UniProt P10997 34-70, looked up, variant S28P) [amylin analogue]
- amylin activity in vivo (test animals): show amylin activity in vivo

Compound: Arg18 Pro25 Pro28-h-amylin
- amylin activity in vivo (test animals): show amylin activity in vivo

Compound: des-Lys1-h-amylin
- amylin activity in vivo (test animals): show amylin activity in vivo

Compound: Arg18 Pro25 Pro 28-des-Lys1-h-amylin
- amylin activity in vivo (test animals): show amylin activity in vivo
